Tested on: K98450-129-R-PDC multicell spheroids, viability
Assay: Anticancer human tumor K98450-129-R-PDC patient-derived colon adenocarcinoma cell line growth inhibition [PI3K]
Settings: for IC50: curve of first compound; for viability, T/C: stronger effect = lower value; active = viability on the fitted dose curve at most 10% of control; inactive = the rest
Description: Combinatorial screen of targeted agents with the PI3K inhibitors inavolisib, alpelisib, duvelisib, and copanlisib in multi-cell type tumor spheroids
A high-throughput screen of multi-cell type tumor spheroids was designed to identify active combinations of targeted small molecules and PI3K pathway inhibitors. Complex spheroids include a stromal component modeled by human endothelial cells (HUVEC) and fibroblasts modeled by human mesenchymal stem cells (MSCs). The concentration ranges selected for each drug and investigational agent were based upon clinically achievable concentrations if the clinical Cmax of the agent was known.
Compounds. The drugs and investigational agents: inavolisib (NSC800729), alpelisib (NSC765974), duvelisib (NSC772469), copanlisib (NSC816437), ipatasertib (NSC767898), afuresertib (NSC778305), talazoparib (NSC767125), sapanisertib (NSC764658), selumetinib (NSC741078), tovorafenib (DAY101, NSC766906), vemurafenib (NSC761431), ravoxertinib (NSC781343), sotorasib (NSC818433), MRTX1133 (NSC 836407), abemaciclib (NSC 768073), palbociclib (NSC758247), venetoclax (NSC 766270), SY5609 (NSC837396), enzalutamide (NSC755605), and darolutamide (NSC825331), were obtained from the National Cancer Institute (NCI) Developmental Therapeutics Program Chemical Repository. The FDA-approved anticancer drug set is available from the NCI Developmental Therapeutics Program. […] The stock solutions were prepared in dimethyl sulfoxide (DMSO, Sigma-Aldrich, St. Louis, MO, cat. D2650) at 800-fold the tested concentration and stored at -70 degrees C prior to their use. All drugs and investigational agents were tested over a range starting from a high concentration at or near the clinical Cmax and decreasing in half-log increments. If the clinical Cmax for an agent had not been determined, the highest concentration tested was 10 microM.
Cell Culture. All cells were maintained in an incubator at 37 degrees C and 5% CO2 with 95% humidity. The PDC lines were cultured according to standard operating procedures established by the NCI PDMR (https://pdmr.cancer.gov/sops/default.htm). All PDCs were thawed and cultured in Matrigel-coated flasks prepared with a working solution of 1X Ham's F-12 nutrient mix, without supplementation (Invitrogen, Waltham, MA, cat. 11765054), 100 U/mL penicillin-streptomycin (Invitrogen, cat. 15140122), and 2.5% Matrigel (Corning Inc., Corning, NY, cat. 354248) for the first three passages. The 354836-022-R-J1-PDC, 475296-252-R-J1-PDC, and 997726-040-R-J2-PDC lines were cultured in 6A media, which includes advanced DMEM/F-12 (Thermo Fisher Scientific, cat. 12634028), 10 mM HEPES (Thermo Fisher Scientific, cat. 15630080), 1X GlutaMAX supplement (Thermo Fisher Scientific, cat. 35050061), 0.1 mg/mL primocin (InvivoGen, San Diego, CA, cat. ant-pm-2), 10% defined fetal bovine serum, heat inactivated (HyClone Laboratories Inc., Logan, UT, cat. SH30070.03HI), 50% L-WRN conditioned media (ATCC, cat. CRL-3276), 1.25 mM N-Acetyl-L-cysteine (Sigma-Aldrich, cat. A9165), 10 mM nicotinamide (Sigma-Aldrich, cat. N0636), 1X B-27 supplement (Thermo Fisher Scientific, cat. 17504044), 1X N-2 supplement (Thermo Fisher Scientific, cat. 17502048), and 10 microM Y-27632 dihydrochloride (Tocris Bioscience, Bristol, United Kingdom, cat. 1254). The 624824-186-R-J2-PDC line was cultured in 6C/Colon 1B media, which includes all 6A media components plus 50 ng/mL human EGF recombinant protein (Thermo Fisher Scientific, cat. PHG0311). […]

[1] = second compound 0.0316 µM, first compound 0.0316 µM
[2] = second compound 0.0316 µM, first compound 0.1 µM
[3] = second compound 0.0316 µM, first compound 0.316 µM
[4] = second compound 0.0316 µM, first compound 1 µM
[5] = second compound 0.1 µM, first compound 0.0316 µM
[6] = second compound 0.1 µM, first compound 0.1 µM
[7] = second compound 0.1 µM, first compound 0.316 µM
[8] = second compound 0.1 µM, first compound 1 µM
[9] = second compound 0.316 µM, first compound 0.0316 µM
[10] = second compound 0.316 µM, first compound 0.1 µM
[11] = second compound 0.316 µM, first compound 0.316 µM
[12] = second compound 0.316 µM, first compound 1 µM
[13] = second compound 1 µM, first compound 0.0316 µM
[14] = second compound 1 µM, first compound 0.1 µM
[15] = second compound 1 µM, first compound 0.316 µM
[16] = second compound 1 µM, first compound 1 µM
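Also: spheroids exposed to agents for seven days before read-out.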

C=CC(=O)N1CCN(c2nc(=O)n(-c3c(C)ccnc3C(C)C)c3nc(-c4c(O)cccc4F)c(F)cc23)C(C)C1 (centres undefined) + CC(Nc1ccc2c(c1)OCCn1cc(N3C(=O)OCC3C(F)F)nc1-2)C(N)=O
inactive: viability, T/C (second compound 0.00316 µM, first compound 0.0316 µM) 108% | viability, T/C (second compound 0.00316 µM, first compound 0.1 µM) 92.8% | viability, T/C (second compound 0.00316 µM, first compound 0.316 µM) 95.1% | viability, T/C (second compound 0.00316 µM, first compound 1 µM) 76.7% | viability, T/C (second compound 0.00316 µM, first compound 3.16 µM) 50.8% | viability, T/C (second compound 0.00316 µM, first compound 10 µM) 31.1% | viability, T/C (second compound 0.01 µM, first compound 0.0316 µM) 108% | viability, T/C (second compound 0.01 µM, first compound 0.1 µM) 95.8% | viability, T/C (second compound 0.01 µM, first compound 0.316 µM) 110% | viability, T/C (second compound 0.01 µM, first compound 1 µM) 83.8% | viability, T/C (second compound 0.01 µM, first compound 3.16 µM) 56.5% | viability, T/C (second compound 0.01 µM, first compound 10 µM) 28.9% | viability, T/C [1] 107% | viability, T/C [2] 97.7% | viability, T/C [3] 95.5% | viability, T/C [4] 79.7% | viability, T/C (second compound 0.0316 µM, first compound 3.16 µM) 54.1% | viability, T/C (second compound 0.0316 µM, first compound 10 µM) 31% | viability, T/C [5] 92.4% | viability, T/C [6] 100% | viability, T/C [7] 94.8% | viability, T/C [8] 82.8% | viability, T/C (second compound 0.1 µM, first compound 3.16 µM) 48.8% | viability, T/C (second compound 0.1 µM, first compound 10 µM) 24.9% | viability, T/C [9] 88.7% | viability, T/C [10] 97.7% | viability, T/C [11] 107% | viability, T/C [12] 75.4% | viability, T/C (second compound 0.316 µM, first compound 3.16 µM) 39.3% | viability, T/C (second compound 0.316 µM, first compound 10 µM) 25.2% | viability, T/C [13] 85.6% | viability, T/C [14] 92.1% | viability, T/C [15] 83.7% | viability, T/C [16] 67% | viability, T/C (second compound 1 µM, first compound 3.16 µM) 35.8% | viability, T/C (second compound 1 µM, first compound 10 µM) 19%
3530 nM: IC50 (second compound 0.00316 µM)
1870 nM: IC50 (second compound 1 µM)
3990 nM: IC50 (second compound 0.0316 µM)
3020 nM: IC50 (second compound 0.1 µM)
3980 nM: IC50 (second compound 0.01 µM)
2200 nM: IC50 (second compound 0.316 µM)

CCN1CCN(Cc2ccc(Nc3ncc(F)c(-c4cc(F)c5nc(C)n(C(C)C)c5c4)n3)nc2)CC1 + CC(Nc1ncnc2nc[nH]c12)c1cc2cccc(Cl)c2c(=O)n1-c1ccccc1
inactive: viability, T/C (second compound 0.0316 µM, first compound 0.00316 µM) 111% | viability, T/C (second compound 0.0316 µM, first compound 0.01 µM) 102% | viability, T/C [1] 109% | viability, T/C [2] 83.5% | viability, T/C [3] 81.6% | viability, T/C [4] 87% | viability, T/C (second compound 0.1 µM, first compound 0.00316 µM) 106% | viability, T/C (second compound 0.1 µM, first compound 0.01 µM) 107% | viability, T/C [5] 91.9% | viability, T/C [6] 87.7% | viability, T/C [7] 87% | viability, T/C [8] 95% | viability, T/C (second compound 0.316 µM, first compound 0.00316 µM) 101% | viability, T/C (second compound 0.316 µM, first compound 0.01 µM) 108% | viability, T/C [9] 94.6% | viability, T/C [10] 90.3% | viability, T/C [11] 89.7% | viability, T/C [12] 89.1% | viability, T/C (second compound 1 µM, first compound 0.00316 µM) 93.1% | viability, T/C (second compound 1 µM, first compound 0.01 µM) 92.5% | viability, T/C [13] 95.9% | viability, T/C [14] 89.4% | viability, T/C [15] 84.8% | viability, T/C [16] 102% | viability, T/C (second compound 3.16 µM, first compound 0.00316 µM) 95.1% | viability, T/C (second compound 3.16 µM, first compound 0.01 µM) 91.6% | viability, T/C (second compound 3.16 µM, first compound 0.0316 µM) 81.1% | viability, T/C (second compound 3.16 µM, first compound 0.1 µM) 90.8% | viability, T/C (second compound 3.16 µM, first compound 0.316 µM) 82.4% | viability, T/C (second compound 3.16 µM, first compound 1 µM) 83.2% | viability, T/C (second compound 10 µM, first compound 0.00316 µM) 86% | viability, T/C (second compound 10 µM, first compound 0.01 µM) 83.5% | viability, T/C (second compound 10 µM, first compound 0.0316 µM) 81.9% | viability, T/C (second compound 10 µM, first compound 0.1 µM) 82.5% | viability, T/C (second compound 10 µM, first compound 0.316 µM) 86.1% | viability, T/C (second compound 10 µM, first compound 1 µM) 78.2%
> 1000 nM: IC50 (second compound 0.0316 µM) | IC50 (second compound 0.1 µM) | IC50 (second compound 0.316 µM) | IC50 (second compound 1 µM) | IC50 (second compound 3.16 µM) | IC50 (second compound 10 µM)
